In one data set the test system is HBV. Briefly: Anti-HBV antiviral assay: extracellular HBV virion DNA by Southern blot in HepG 2.2.15 cultures. The class given is cell-based, hepatitis B virus. Here is the method:
Confluent cultures of chronic HBV producing cell line HepG 2.2.15 in 96-well tissue culture plates in RPMI 1640 medium with 2% fetal bovine serum were used for the antiviral analysis of castanospermine esters (see Korba and Gerin, Antivir. Res. 19:55-70, 1992).
Extracellular HBV nucleic acid levels were measured 24 hours after the last treatment by Southern blot hybridization (quantified via densitometry using equipment and methods known in the art) as a measure of the number of HBV virions produced.
Based on the hybridization analysis, about 1.0 pg extracellular HBV DNA/ml of culture medium is roughly equivalent to about 3×10^5 viral particles/ml. Values ±standard deviations (SD) were calculated by linear regression analysis using data combined from all treated cultures. SDs were calculated using the standard error of regression generated from the linear regression analyses.

In a further data set the test system is HepG 2.2.15. Nature of the data set: Cytotoxicity, neutral red dye uptake. Particulars: for Cytotoxicity - Neutral Red Dye Uptake: 24 hours after final treatment. As to the method: (§1) Cytotoxicity analyses were also performed in order to assess whether any observed antiviral effects were due to a general effect on cell viability. This analysis was performed on 96-well plates seeded at the same time and with the identical pool of stock cells used for the antiviral assay described in Example 1. […] Cellular uptake of neutral red dye was used to determine the relative level of toxicity 24 hours after the final treatment. A cell that is viable will take up the neutral red dye, while a dead cell will not. The absorbance of internalized dye at 510 nm (A510) was used for quantitative analysis. Values are presented as a percentage of the average A510 values (±standard deviation, SD) in 9 separate cultures of untreated cells on the same plate.
(§2) The EC90 and CC50 values were used to calculate a Selectivity Index (SI, CC50/EC90) because at least a […] reduction in HBV levels is considered as having achieved statistical significance in this assay (see Korba & Gerin, Antiviral Res. 19:55-70,1992).

The nature of data set [1]: Cytotoxicity, neutral red dye uptake. Particulars: human. Here is the method:
as §1, §2

Setting [2] is: Hepatitis B virus, HepG2.2.15, Table 5, monotherapy, or celgosivir concentration in combination with ADV.

Each structure is given as a SMILES string. Like-named read-outs stand apart in the source and are kept apart here.

Take `CCCC(=O)O[C@H]1CN2CC[C@H](O)[C@@H]2[C@@H](O)[C@@H]1O` [Celgosivir, [1S-(1α,6β,7α,8β,8aβ)]-octahydro-1,6,7,8-indolizinetetrol 6-butanoate]: the “HBV Virion DNA Levels” value was 113 ± 9 pg/mL culture medium in the data set on HBV (15 μM (first panel), 9 daily doses, untreated cells 121 pg/mL); 111 ± 8 pg/mL culture medium with HBV (15 μM celgosivir (third panel; combinations plus ADV at the molar ratio)); 56 ± 4 pg/mL culture medium in the data set with HBV (50 μM (first panel), 9 daily doses, untreated cells 121 pg/mL); 53 ± 6 pg/mL culture medium with HBV (50 μM celgosivir (third panel; combinations plus ADV at the molar ratio), assay sensitivity 0.1 pg/mL); 17 ± 2 pg/mL culture medium with HBV (150 μM (first panel), 9 daily doses, untreated cells 121 pg/mL); 16 ± 2 pg/mL culture medium in the data set on HBV (150 μM celgosivir (third panel; combinations plus ADV at the molar ratio), assay sensitivity 0.1 pg/mL). For the same compound, the “HBV Virion DNA Levels” value with HBV (300 μM, 9 daily doses, extracellular, 24 hours after last treatment, untreated cells 121 pg/mL) is 8 ± 1 pg/mL culture medium. Further, the EC50 with HBV (Table 3, concentration giving 2-fold reduction in HBV DNA vs untreated cultures, read-out: EC50) is 28 ± 1.4 µM; in the data set with HBV (Table 5, monotherapy, or celgosivir concentration in combination with ADV, read-out: EC50), 24 ± 1.2 µM. In addition, the EC90 with HBV (Table 3, concentration giving 10-fold reduction in HBV DNA vs untreated cultures, read-out: EC90) came to 158 ± 22 µM; in the data set on HBV (Table 5, monotherapy, or celgosivir concentration in combination with ADV, read-out: EC90) it was 147 ± 15 µM. In addition, in the data set with HBV (summary of Tables 2 and 3), the “HBV virion production by the 2.2.15 cells, in words” value is reported as “caused a reduction in HBV virion production”. In the data set on HepG 2.2.15 (Table 5, 2-fold reduction in neutral red dye uptake, value for the drug named, >1000 = highest concentration tested), this compound showed a CC50 of over 1000 µM.
For `CC(C)(C)C(=O)OCOP(=O)(COCCn1cnc2c(N)ncnc21)OCOC(=O)C(C)(C)C` [ADV, adefovir dipivoxil], the “HBV Virion DNA Levels” value in the data set with HBV (0.3 μM ADV, untreated cells 121 pg/mL) is reported as 121 ± 13 pg/mL culture medium; with HBV (1.0 μM ADV, untreated cells 121 pg/mL), 55 ± 4 pg/mL culture medium; with HBV (3.0 μM ADV, untreated cells 121 pg/mL) it was 11 ± 2 pg/mL culture medium; with HBV (10 μM ADV, untreated cells 121 pg/mL), 3 ± 1 pg/mL culture medium. Further, the EC50 in the data set on HBV (Hepatitis B virus, HepG2.2.15, Table 3, concentration giving 2-fold reduction in HBV DNA vs untreated cultures, read-out: EC50) was 0.95 ± 0.105 µM; in the data set on HBV (Hepatitis B virus, HepG2.2.15, Table 5, monotherapy, or celgosivir concentration in combination with ADV, read-out: EC50) it was 1 ± 0.1 µM. Moreover, the EC90 turned out to be 2.8 ± 0.1 µM with HBV (Hepatitis B virus, HepG2.2.15, Table 3, concentration giving 10-fold reduction in HBV DNA vs untreated cultures, read-out: EC90) and 3 ± 0.1 µM in the data set on HBV (Hepatitis B virus, HepG2.2.15, Table 5, monotherapy, or celgosivir concentration in combination with ADV, read-out: EC90). In addition, the CC50 in data set [1] was determined as 468 ± 17 µM. Also, the “Cytotoxicity - Neutral Red Dye Uptake” value is 100% ± 2 % of Control in the data set with HepG 2.2.15 (30 μM (combinations: dose of celgosivir)), 98% ± 1 % of Control in the data set with HepG 2.2.15 (100 μM (combinations: dose of celgosivir)), 73% ± 2 % of Control with HepG 2.2.15 (300 μM (combinations: dose of celgosivir)) and 10% ± 1 % of Control in the data set with HepG 2.2.15 (1000 μM (combinations: dose of celgosivir)).
As for `Nc1ccn([C@@H]2CS[C@H](CO)O2)c(=O)n1` [Compound 3TC, (−)2′,3′-dideoxy, 3′-thiacytidine], the EC50 in the data set with HBV (Hepatitis B virus, HepG2.2.15, Table 3, concentration giving 2-fold reduction in HBV DNA vs untreated cultures) came to 0.058 ± 0.004 µM; in the data set on HBV (setting [2]) it was 0.058 ± 0.004 µM. The EC90 came out at 0.177 ± 0.015 µM in the data set with HBV (Hepatitis B virus, HepG2.2.15, Table 3, concentration giving 10-fold reduction in HBV DNA vs untreated cultures) and 0.177 ± 0.015 µM with HBV (setting [2]). Further, in the data set with HBV (Table 5, monotherapy, or celgosivir in combination with ADV), the “Selectivity Index (CC50/EC90)” value is 11,709. In data set [1], this compound had a CC50 of 2340 ± 89 µM.

The EC50 is the concentration needed to bring the measured effect to its halfway point. One may read the EC90 as the point of the concentration-response curve where the effect stands at 90%. Usually CC50 stands for the concentration giving 50% cytotoxicity. A higher CC50 goes with lower toxicity to the cells.

For the origin of these results see patent US20060052414A1, “Compositions and methods for treating or preventing Hepadnaviridae infection” (priority 2004, published 2006).
